Measurements as given in patent US6770635B1, “Method for medicating the inflammatory controlling system and adverse inflammatory reactions and for making compounds for treating the pathology of adverse inflammatory reactions” (Pharos Pharmaceuticals, priority 1995, dated 2004).

Legend:
[1] = stability of BD2K1 in water (deuterium oxide), 500 MHz NMR; format: physicochemical; details: for After One Week (share of ingredient in the solution by NMR) / Initially % (share of ingredient in the solution by NMR): BD2K1 in deuterium oxide, room temperature about 27° C.
Experimental: A sample of BD2K1 made according to Example 1. Five mcg of the sample was dissolved in one ml of deuterium oxide and the solution was stored in a tightly capped screw capped tube maintained at room temperature which is about 27° C. Deuterium was used as the water source because it facilitates the NMR determinations of chemical configuration. The solution sample was scanned by 500 MHz NMR initially and after one week.

[2] = stabilizing effect of glucose added to BD2K1-deuterium oxide mixtures, NMR; format: physicochemical; details: for level at which di-β-glucosamine equilibrates: 20% or more glucose in the mixture, in water, first week; for percent of total composition in the stationary equilibrium: 95% BD2K1 sample in water without glucose, one week
Experimental: This experiment measures the stabilizing effect of glucose when added to the BD2K1 -deuterium oxide mixtures at room temperature. Various amounts of α-D-glucose were added to the similar starting mixtures in Example 3 and the NMRs were recorded to determine the percent changes of the total composition as a function of time.

[3] = storage of BD2K1 in a desiccated container; format: physicochemical; details: room temperature
[4] = general statements on stability at alkaline pH and in body fluids; format: physicochemical
[5] = test system: mice immunologically sensitive to a specific water soluble chemical; experiment: Inflammatory Controlling System (ICS) assay; format: in vivo
Experimental: An example of BD2K1 being synthesized in another area than in the intestine is seen in a mouse study which was conducted involving the Inflammatory Controlling System (ICS). ICS assay is done in mice immunologically sensitive to a specific water soluble chemical. When these mice are challenged intravenously with a sublethal dose of the chemical, below the toxicity level for non-sensitive mice, they immediately respond with an adverse immune reaction. Result is an acute pancreatitis, shock and death. […] The assay involves glucose controls which are administrated intraperitoneally at three times. The first is early (i.e., 3 hours) before the antigen challenge. The second is one hour before the challenge and the third is at zero hour (i.e., when the challenge is done). […] However, for the case where glucose was injected at the zero hour and one hour before the challenge there was no effect.
A further study in mice was conducted to test the effect of glucose in mice by various routes of administration in the ICS assay test. The glucose was administrated by four different routes: intraperitoneal, intravenous, subcutaneous and oral.

[6] = tolerability statements for BD2K (topical, parenteral use); format: in vivo

After One Week (share of ingredient in the solution by NMR) [1] [%]	Initially % (share of ingredient in the solution by NMR) [1] [%]	Compound	reduction of BD2K1 to the starting material glucose ([1]; by adding water) [%]	level at which di-β-glucosamine equilibrates [2] [%]	level at which di-β-glucosamine equilibrates ([2]; listed as di-β-glucosamine)	time the equilibrium level is kept ([2]; 20% or more glucose, sealed container)	percent of total composition in the stationary equilibrium [2]	decomposition on storage [3]	stability in body fluids ([4]; body fluids)	stability at high alkaline pH ([4]; high alkaline pH)	protection against the acute pancreatitis ([5]; BD2K1 controls of the route study)	protection from death on challenge ([5]; sensitive mice, intravenous sublethal antigen challenge)	irritation ([6]; applied topically)	IgE levels in patient sera ([6]; patient sera)	toxicity ([6]; used parentally)
1	1	c1cnccn1 [pyrazine]	–	–	–	–	less than 1%	–	–	–	–	–	–	–	–
10	0	OC[C@H]1O[C@H](O)[C@H](O)[C@@H](O)[C@@H]1O [α-glucose]	–	–	–	–	–	–	–	–	–	–	–	–	–
18	0	OC[C@H]1O[C@@H](O)[C@H](O)[C@@H](O)[C@@H]1O [β-glucose]	–	–	–	–	–	–	–	–	–	–	–	–	–

Compound	After One Week (share of ingredient in the solution by NMR) [1] [%]	Initially % (share of ingredient in the solution by NMR) [1] [%]	reduction of BD2K1 to the starting material glucose ([1]; by adding water) [%]	level at which di-β-glucosamine equilibrates [2] [%]	level at which di-β-glucosamine equilibrates ([2]; listed as di-β-glucosamine)	time the equilibrium level is kept ([2]; 20% or more glucose, sealed container)	percent of total composition in the stationary equilibrium [2]	decomposition on storage [3]	stability in body fluids ([4]; body fluids)	stability at high alkaline pH ([4]; high alkaline pH)	protection against the acute pancreatitis ([5]; BD2K1 controls of the route study)	protection from death on challenge ([5]; sensitive mice, intravenous sublethal antigen challenge)	irritation ([6]; applied topically)	IgE levels in patient sera ([6]; patient sera)	toxicity ([6]; used parentally)
OC[C@H]1O[C@@H](N[C@@H]2O[C@H](CO)[C@@H](O)[C@H](O)[C@H]2O)[C@H](O)[C@@H](O)[C@@H]1O [BD2K1, di-Beta-D-glucopyranosylamine]	62	92	33	80	about 80%	at least five years	62%	does not decompose	not very stable	extremely stable	good protection	protects these sensitive mice from death	without any irritation	without elevating IgE levels	no indication of toxicity
